Source: patent publication US7417038B1, “Methods of treating cachexia” (Imperial Innovations Limited, priority 1998, dated 2008)
Where a name gives a salt, the structure may show the parent alone.

Assays:
[1] = Treatment of a hypertensive patient with Atenolol (with co-medication): body weight; assay type: in vivo, human; conditions: baseline 85.6 kg, Atenolol 50 mgs OD with Losartan, Bendrofluazide, Doxazosin, 11 months
Description: A hypertensive patient presented weighing 85.6 kg. They were treated with Losartan 50 mgs OD, Bendrofluazide 2-5 mgs OD, Doxazosin 1 mg OD and Atenolol, a β-blocker, 50 mgs OD. In 11 months their weight increased to 94.3 kg.

[2] = target: T1, human cloned ETA receptors (Homo sapiens, UniProt P25101); conditions: cited from earlier work
T1 sequence (P25101 21-427): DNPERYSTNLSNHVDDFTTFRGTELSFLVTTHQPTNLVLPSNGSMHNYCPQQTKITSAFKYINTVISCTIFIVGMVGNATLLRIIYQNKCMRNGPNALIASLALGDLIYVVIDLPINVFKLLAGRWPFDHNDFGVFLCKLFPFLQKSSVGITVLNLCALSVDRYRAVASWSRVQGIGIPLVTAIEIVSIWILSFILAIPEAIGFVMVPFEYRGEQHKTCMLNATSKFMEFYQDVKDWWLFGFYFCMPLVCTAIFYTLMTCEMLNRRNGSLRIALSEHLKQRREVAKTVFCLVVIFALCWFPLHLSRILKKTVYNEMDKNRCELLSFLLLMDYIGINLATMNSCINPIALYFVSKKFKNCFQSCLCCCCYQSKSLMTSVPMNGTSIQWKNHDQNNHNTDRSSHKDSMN

[3] = Carvedilol treatment of a cachectic CHF patient: symptom limited treadmill exercise testing; assay type: in vivo, human; conditions: one cachectic CHF patient, Carvedilol 3.125 mg to 12.5 mg twice daily, follow-up vs baseline
[4] = Carvedilol treatment of a cachectic CHF patient: body weight, body composition (bioelectrical impedance), clinical status; assay type: in vivo, human; conditions: one cachectic CHF patient
ETA receptor = target: T2, ETA receptor (Homo sapiens, UniProt P25101); conditions: cited from earlier work; for selectivity for the ETA receptor versus the ETB receptor: ETA vs ETB
T2 sequence (P25101 21-427): T1 sequence (P25101 21-427)

[5] = Spironolactone treatment of a cachectic CHF patient: symptom limited treadmill exercise testing; assay type: in vivo, human; conditions: one cachectic CHF patient, spironolactone 25 mg once daily, follow-up vs baseline
Description: The patient had good compliance in taking spironolactone.
Treadmill exercise testing: The patient underwent symptom limited treadmill exercise testing. A standard Bruce protocol was used. The patient breathed through a one-way valve connected to a commercially available respiratory gas analyser (MedGraphics Inc., USA) and minute ventilation and oxygen consumption were recorded on line every 15 seconds. The patient was encouraged to exercise to exhaustion. Exercise time and oxygen consumption at peak exercise adjusted for total body weight (peak VO2 in ml/kg/min) was measured as an index of the exercise capacity. One day prior to the intended baseline exercise test an additional exercise test was performed to familarise the patient with the test procedure.

[6] = Spironolactone treatment of a cachectic CHF patient: body weight and clinical status; conditions: one cachectic CHF patient, spironolactone 25 mg once daily
[7] = Carvedilol, without development of oedema
[8] = without development of any oedema

CC(C)NCC(O)COc1ccc(CC(N)=O)cc1 (centres unmarked) [Atenolol]
body weight after treatment [1]: 94.3 kg

Cc1ccc(-c2c(NS(=O)(=O)c3ccc(C(C)(C)CO)cc3)ncnc2OCCOc2ncc(Br)cn2)cc1 [T-0201, N-(6-(2-(5-bromopyrimidin-4-yl)-4-(2-hydroxy-1,1-dimethylethyl)-benzensulfonamidesodium salt sesquihydrate]
effect on specific binding of [125I]-ET-1 [2]: competitively antagonized the specific binding

COc1ccccc1OCCNCC(O)COc1cccc2[nH]c3ccccc3c12 (centres unmarked) [Carvedilol]
VE/VCO2-slope decrease [3]: 15.5% | peak VO2 increase [3]: 15% | tolerability of the treatment ([4]; Carvedilol 3.125 mg to 12.5 mg twice daily): tolerated the treatment well | increase in lean muscle tissue ([4]; Carvedilol 3.125 mg to 12.5 mg twice daily, bioelectrical impedance): 1.8 kg | body weight increase [4, 7]: 2.1 kg | body weight increase (percent) [4, 7]: 3.1%

CCCCN(CCCC)C(=O)CN1C[C@H](c2cc(OC)c3c(c2)OCO3)[C@@H](C(=O)O)[C@@H]1CC(C)(C)CCC [A-216546]
selectivity for the ETA receptor versus the ETB receptor (ETA receptor): > 25,000 fold

CC(=O)S[C@@H]1CC2=CC(=O)CC[C@]2(C)[C@H]2CC[C@@]3(C)[C@@H](CC[C@@]34CCC(=O)O4)[C@H]12 [spironolactone]
exercise time increase [5]: 53% | peak VO2 increase [5]: 79% | New York Heart Association functional class (NYHA class) change [6]: class III symptoms to class II symptoms | side effects of the treatment [6]: no side effects | body weight increase [6, 8]: 1.5 kg | body weight increase (percent) [6, 8]: 2%

COc1ccccc1Oc1c(NS(=O)(=O)c2ccc(C)cn2)nc(-c2ccnc(-c3nnn[nH]3)c2)nc1OCCO [Ro 61-1790, 5-methyl-pyridine-2-sulfonic acid 6-(2-hydroxy-ethoxy)-5-(2-methoxy-phenoxy)-2-(2-1H-tetrazol-5-yl-+++pyridin-4-yl)-pyrimidin-4-ylamide]
selectivity for the ETA receptor versus the ETB receptor (ETA receptor): approximately 1000 fold | affinity to ETA receptor (ETA receptor; competitive ET antagonist): subnanomolar range
